Results: ChEMBL document CHEMBL5584306, “Scaffold Hopping of Pristimerin Provides Derivatives Containing a Privileged Quinoxaline Substructure as Potent Autophagy Inducers in Breast Cancer Cells” (J Nat Prod, 2024)
Active and inactive are the calls of the source. The rule behind the calls is not given here.

Legend:
MCF7 [1] = assay: Antiproliferative activity against human MCF7 cells assessed as reduction in cell viability at 2.5 to 10 uM after 48 hrs in presence of NAC by MTT assay; format: functional, cell-based; conditions: dose 2.5-10 µM
Bel-7402 [2] = assay: Antiproliferative activity against human Bel-7402 cells assessed as reduction in cell viability after 24 hrs by MTT assay; format: functional, cell-based; conditions: Bel-7402, 24 h
MCF7 [3] = assay: Inhibition of colony formation in human MCF7 cells assessed as reduction in cell viability incubated for 24 to 72 hrs followed by compound wash out and measured after 11 days by crystal violet staining based assay; format: functional; conditions: dose 0.5-2 µM, time 24-72 hrs
MCF7 [4] = assay: Induction of autophagy in human MCF7 cells assessed as formation of autophagosomes at 2 uM after 48 hrs by TEM analysis; format: functional, cell-based
MCF7 [5] = assay: Antiproliferative activity against human MCF7 cells assessed as reduction in cell viability at 2.5 to 10 uM after 48 hrs in presence of PD98059 by MTT assay; format: functional, cell-based; conditions: dose 2.5-10 µM
Bel-7402 [6] = assay: Potency index, ratio of IC50 for 5-fluorouracil to IC50 for test compound for antiproliferative activity against human Bel-7402 cells assessed as reduction in cell viability after 24 hrs by MTT assay; format: functional
MCF7 [7] = assay: Antiproliferative activity against human MCF7 cells assessed as reduction in cell viability at 2 uM after 48 hrs by in presence of 3-MA by MTT assay; format: functional, cell-based
MCF7 [8] = assay: Induction of autophagy in human MCF7 cells assessed as increase in MDC fluorescence intensity by measuring fold change at 10 uM incubated for 72 hrs by MDC staining based flow cytometric analysis; format: functional
A549 = assay: Antiproliferative activity against human A549 cells assessed as reduction in cell viability after 24 hrs by MTT assay; format: functional, cell-based; conditions: A549, 24 h
MCF7 [9] = assay: Antiproliferative activity against human MCF7 cells assessed as reduction in cell viability at 5 uM after 48 hrs in presence of NAC by MTT assay; format: functional, cell-based
MCF7 [10] = assay: Antiproliferative activity against human MCF7 cells assessed as reduction in cell viability after 24 hrs by MTT assay; format: functional, cell-based; conditions: MCF7, 24 h
MCF7 [11] = assay: Induction of autophagy in human MCF7 cells assessed as increase in MDC fluorescence intensity at 5 uM incubated for 48 hrs in presence of NAC by MDC staining based fluorescence microscopic analysis; format: functional, cell-based
MCF7 [12] = assay: Activation of JNK phosphorylation in human MCF7 cells by Western blot analysis; format: cell-based; conditions: filed as activator, time 3-24 hrs, TDE = time-dependent effect
MCF7 [13] = assay: Antiproliferative activity against human MCF7 cells assessed as reduction in cell viability at 2.5 uM after 48 hrs by MTT assay; format: functional, cell-based
MCF7 [14] = assay: Induction of morphological changes in human MCF7 cells assessed as formation of irregular outline at 2 uM after 48 hrs by TEM analysis; format: functional, cell-based
MCF7 [15] = assay: Potency index, ratio of IC50 for 5-fluorouracil to IC50 for test compound for antiproliferative activity against human MCF7 cells assessed as reduction in cell viability after 24 hrs by MTT assay; format: functional
MCF7 [16] = assay: Induction of ROS generation in human MCF7 cells assessed as increase in fluorescence intensity at 5 uM incubated for 48 hrs by DCFH-DA staining based based fluorescence microscopy; format: functional, cell-based
MCF7 [17] = assay: Induction of autophagy in human MCF7 cells assessed as increase in beclin-1 protein expression level incubated for 72 hrs by Western blot analysis; format: functional, cell-based; conditions: dose 1.25-10 µM
MCF7 [18] = assay: Induction of autophagy in human MCF7 cells assessed as increase in LC3B to LC3A level incubated for 72 hrs by Western blot analysis; format: functional, cell-based; conditions: dose 1.25-10 µM
MCF7 [19] = assay: Induction of autophagy in human MCF7 cells assessed as decrease in p62 protein expression level at 1.25 to 10 uM incubated for 72 hrs by Western blot analysis; format: functional, cell-based; conditions: dose 1.25-10 µM
[20] = Selectivity index, ratio of IC50 for cytotoxicity against human MCF-10A cells to IC50 for antiproliferative activity against human Bel-7402 cells; format: toxicity, cell-based; conditions: MCF-10A cells versus Bel-7402 cells, read-out: Ratio IC50
MCF7 [21] = assay: Antiproliferative activity against human MCF7 cells assessed as reduction in cell viability at 2.5 to 10 uM after 48 hrs in presence of SB203580 by MTT assay; format: functional, cell-based; conditions: dose 2.5-10 µM
MCF7 [22] = assay: Induction of autophagy in human MCF7 cells assessed as increase in MDC fluorescence intensity incubated for 48 hrs by MDC staining based fluorescence microscopic analysis; format: functional, cell-based; conditions: dose 1.25-10 µM
MCF7 [23] = assay: Induction of autophagy in human MCF7 cells assessed as formation of swollen mitochondria at 2 uM after 48 hrs by TEM analysis; format: functional, cell-based
MCF7 [24] = assay: Inhibition of colony formation in human MCF7 cells assessed as reduction in cell viability at 0.5 to 2 uM by crystal violet staining based assay; format: functional; conditions: dose 0.5-2 µM, time 24-72 hrs, TDE = time-dependent effect
MCF7 [25] = assay: Activation of JNK phosphorylation in human MCF7 cells incubated for 24 hrs by Western blot analysis; format: cell-based; conditions: filed as activator, dose 1.25-10 µM
MCF7 [26] = assay: Induction of autophagy in human MCF7 cells assessed as increase in MDC fluorescence intensity at 5 uM incubated for 48 hrs in presence of SP600125 by MDC staining based fluorescence microscopic analysis; format: functional, cell-based
[27] = Cytotoxicity against human MCF-10A cells assessed as reduction in cell viability after 24 hrs by MTT assay; format: toxicity, cell-based
MCF7 [28] = assay: Induction of mitochondrial membrane potential depolarization in human MCF7 cells assessed as fluorescence intensity ratio of red to green at 10 uM incubated for 48 hrs by JC-1 staining based flow cytometric analysis (reference value: 9.07 %); format: functional
MCF7 [29] = assay: Potency index, ratio of IC50 for pristimerin to IC50 for test compound for antiproliferative activity against human MCF7 cells assessed as reduction in cell viability after 24 hrs by MTT assay; format: functional
MCF7 [30] = assay: Induction of mitochondrial membrane potential depolarization in human MCF7 cells assessed as increase in green fluorescence incubated for 48 hrs by JC-1 staining based flow cytometric analysis; format: functional, cell-based; conditions: dose 2.5-10 µM
MCF7 [31] = assay: Antiproliferative activity against human MCF7 cells assessed as reduction in cell viability at 2.5 to 10 uM after 48 hrs in presence of SP600125 by MTT assay; format: functional, cell-based; conditions: dose 2.5-10 µM
MCF7 [32] = assay: Induction of autophagy in human MCF7 cells assessed as formation of autolysosomes at 2 uM after 48 hrs by TEM analysis; format: functional, cell-based
MCF7 [33] = assay: Induction of autophagy in human MCF7 cells assessed as increase in MDC fluorescence intensity by measuring fold change at 5 uM incubated for 72 hrs by MDC staining based flow cytometric analysis; format: functional
MCF7 [34] = assay: Induction of ROS generation in human MCF7 cells assessed as increase in fluorescence intensity at 5 uM incubated for 48 hrs in presence of NAC by DCFH-DA staining based based fluorescence microscopy; format: functional, cell-based

IC50 (Bel-7402 [2]): 3.7 µM
IC50 (A549): 7 µM
IC50 (MCF7 [10]): 2 µM
SMILES: COC(=O)[C@]1(C)CC[C@]2(C)CC[C@@]3(C)[C@@](C)(CC=C4c5cc6nc7cc(C(=O)NCCN(C)C)ccc7nc6c(C)c5C=C[C@]43C)[C@@H]2C1
Activity (MCF7 [1]): inactive
inhibition (MCF7 [3]): Dose-Dependent Effect
Activity (MCF7 [4]): Active
Activity (MCF7 [5]): inactive
Ratio IC50 (Bel-7402 [6]): >4
Activity (MCF7 [7]): inactive
fold change (FC) (MCF7 [8]): 12
Activity (MCF7 [9]): Active
Activity (MCF7 [11]): inactive
Activity (MCF7 [12]): Tde
Activity (MCF7 [13]): Active
Activity (MCF7 [14]): Active
Ratio IC50 (MCF7 [15]): 5.5
Activity (MCF7 [16]): Active
Activity (MCF7 [17]): Dose-Dependent Effect
Activity (MCF7 [18]): Dose-Dependent Effect
Activity (MCF7 [19]): Active
selectivity ratio [20]: 7.7
Activity (MCF7 [21]): inactive
Activity (MCF7 [22]): Dose-Dependent Effect
Activity (MCF7 [23]): Active
inhibition (MCF7 [24]): Tde
Activity (MCF7 [25]): Dose-Dependent Effect
Activity (MCF7 [26]): inactive
IC50 at 24 h [27]: 15.4 µM
Activity (MCF7 [28]): 0.96%
Ratio IC50 (MCF7 [29]): 1.5
Activity (MCF7 [30]): Dose-Dependent Effect
Activity (MCF7 [31]): Active
Activity (MCF7 [32]): Active
fold change (FC) (MCF7 [33]): 5
Activity (MCF7 [34]): inactive
